Marks after values point to notes of the source that are not given here. Residues, ends and D or L forms follow the SMILES beside them.
Legend:
[1] = In-vitro peptide degradation assay in human plasma with rt-PA or TNK
Procedure: To determine nerinetide stability in the presence of rt-PA in plasma, we use an in-vitro peptide content analysis by HPLC. In brief, Nerinetide or D-Tat-L-2B9c were spiked into rat or human plasma at a concentration of 65 ug/ml. rt-PA was added after the baseline time-point was collected, at the specified concentrations. rt-PA administration followed the clinical dosing approach [10% bolus dose followed by 60-mins infusion (90% of the dose)], using a Harvard apparatus pump. Sample collection following IV bolus was performed at 5 min, 15 min, 30 min and 45 min post-dose. At each time point, approximately 100 uL of plasma was collected from each vial using a fresh syringe. Plasma was then collected and stored at -80° C. until analyzed.
Nerinetide or D-Tat-L2B9c was extracted by precipitation with 1M perchloric acid. All analyses were performed on an Agilent 1260 Infinity Quaternary LC System (Agilent Technologies, Santa Clara, Calif., USA) and on a 25 cm [YMAA12S052546WT] C-18 RP-HPLC column (Agilent Technologies, Santa Clara, Calif., USA). The column was equilibrated with 10% acetonitrile with 0.1% TFA at 40° C. The eluent flow was 1.5 ml/min (gradient from 10% to 35% acetonitrile in 0.1% TFA) The UV trace was recorded at 220 nm. Concentrations of nerinetide or D-Tat-L-2B9c were derived from calibration standards obtained by spiking the agent into plasma.

acute ischemic stroke = experiment: ESCAPE-NA1 trial: efficacy of intravenous nerinetide in patients with acute ischemic stroke undergoing thrombectomy; format: in vivo, human
Procedure: ESCAPE-NA1 was a multicenter, randomized, double-blinded, placebo-controlled, parallel group, single-dose study to determine the efficacy and safety of intravenous nerinetide in patients with acute ischemic stroke who were selected to undergo thrombectomy. Patients were randomized in a 1:1 ratio to receive a single, 2.6 mg/kg (up to a maximum dose of 270 mg) intravenous dose of nerinetide or saline placebo delivered over 10+1 minutes. Nerinetide and placebo were prepared as colorless solutions in numbered, refrigerated vials.
Randomization in a 1:1 ratio to nerinetide or placebo occurred using a real-time, dynamic, Internet-based, stratified randomized minimization procedure. Stratification occurred on the use of intravenous alteplase (yes/no) and declared initial thrombectomy device (stent-retriever or aspiration device). The choice to stratify was based upon the possibility of drug-drug or drug-device interactions. Randomized minimization occurring within strata aimed to achieve distribution balance with regard to age, sex, baseline National Institutes of Health Stroke Scale (NIHSS) score (range, 0 to 42, with higher scores indicating greater stroke severity), site of arterial occlusion, baseline Alberta Stroke Program Early Computed Tomography Score (ASPECTS; range, 0 to 10, with 1 point subtracted for any evidence of early ischemic change in each defined region on the CT scan) and clinical site.
Eligible patients were adults aged 18 or greater with a disabling ischemic stroke at the time of randomization (baseline NIHSS>5), who had been functioning independently in the community (Barthel Index score>90 [range, 0 to 100, with higher scores indicating a greater ability to complete activities of daily living])^1 before the stroke. Enrollment occurred up to 12 hours after the onset of stroke symptoms (last-seen-well time). Non-contrast CT and multiphase CTA were performed at the thrombectomy center to identify patients with a confirmed proximal intracranial artery occlusion, defined as the intracranial internal carotid artery or the first segment of the middle cerebral artery or both.
After qualifying imaging, patients were treated with rapid EVT using currently available devices. Some patients received intravenous alteplase according to usual care following national or regional guidelines, before or during EVT, at a primary hospital prior to transfer or at the endovascular center. Interpretation of treatment guidelines was at the discretion of the treating team. Patients treated with alteplase more than 4.5 hours from stroke onset were not excluded from the trial for this reason alone. Patients had to meet inclusion and exclusion criteria at the EVT hospital. Patients received trial drug, as a single dose of 2.6 mg/kg to a maximum dose of 270 mg, based upon estimated or actual weight (if known) using a dedicated intravenous line. The trial drug was administered as soon as possible after randomization.
Time targets were imaging to randomization 30 minutes, imaging to study drug administration ≤60 minutes, and imaging to arterial access/puncture ≤60 minutes. Targets from imaging to reperfusion were 90th percentile ≤90 minutes and a median at ≤75 minutes. In general, the order of events was imaging to determine eligibility for EVT treatment, study randomization, administration of alteplase (in some patients), administration of nerinetide, and performance of EVT.
The primary outcome was good outcome as defined by a score of 0-2 on the modified Rankin scale (mRS) (range, 0 [no symptoms] to 6 [death]) for the assessment of neurologic functional disability^2 assessed in person or, if an in-person visit was not possible, by telephone, at 90 days after randomization by personnel certified in the scoring of the mRS. […]

[2] = Alteplase stratum, nerinetide n = 330
[3] = No Alteplase stratum, nerinetide n = 219
[4] = No Alteplase stratum, nerinetide n = 219, missing imputed as deaths
[5] = all patients (ITT), nerinetide vs placebo, 90 days
[6] = all patients, nerinetide group n = 549, 90 days
[7] = all patients, nerinetide vs placebo

Compound: CC[C@H](C)[C@H](NC(=O)[C@H](CO)NC(=O)[C@H](CO)NC(=O)[C@H](CC(C)C)NC(=O)[C@H](CCCCN)NC(=O)[C@H](CCCN=C(N)N)NC(=O)[C@H](CCCN=C(N)N)NC(=O)[C@H](CCCN=C(N)N)NC(=O)[C@H](CCC(N)=O)NC(=O)[C@H](CCCN=C(N)N)NC(=O)[C@H](CCCN=C(N)N)NC(=O)[C@H](CCCCN)NC(=O)[C@H](CCCCN)NC(=O)[C@H](CCCN=C(N)N)NC(=O)CNC(=O)[C@@H](N)Cc1ccc(O)cc1)C(=O)N[C@@H](CCC(=O)O)C(=O)N[C@@H](CO)C(=O)N[C@@H](CC(=O)O)C(=O)N[C@H](C(=O)O)C(C)C [Nerinetide] (H-YGRKKRRQRRRKLSSIESDV-OH)
- elimination in human plasma with tenecteplase (TNK) ([1]; TNK 6.25 ug/ml): rapid elimination
- stability alone in human plasma ([1]; absence of alteplase): stable
- degradation in human plasma with alteplase ([1]; rt-PA 135 ug/ml): rapid degradation
- BI 95-100, unadjusted RR (CI95) (acute ischemic stroke; Alteplase stratum): 0.96 (0.86-1.07)
- Deaths without imputation, RR (acute ischemic stroke; Alteplase stratum): 1.24
- Infarct volume (cubic root transformation), beta coefficient (acute ischemic stroke; Alteplase stratum): 0.20 (−0.56 to 0.95)** ml^1/3
- Infarct volume (median) (acute ischemic stroke; Alteplase stratum): 22.7 mL
- Mortality, unadjusted RR (CI95) (acute ischemic stroke; Alteplase stratum): 1.14 (0.74-1.76)
- NIHSS 0-2, unadjusted RR (CI95) (acute ischemic stroke; Alteplase stratum): 0.92 (0.81-1.04)
- mRS 0-1, unadjusted RR (CI95) (acute ischemic stroke; Alteplase stratum): 0.92 (0.77-1.10)
- mRS 0-2, unadjusted RR (CI95) (acute ischemic stroke; Alteplase stratum): 0.96 (0.85-1.07)
- BI 95-100, adjusted risk ratio (95% confidence interval) (acute ischemic stroke; Alteplase stratum (n = 659)): 0.97 (0.88-1.08)
- Mortality, adjusted risk ratio (95% confidence interval) (acute ischemic stroke; Alteplase stratum (n = 659)): 1.08 (0.70-1.66)
- NIHSS 0-2, adjusted risk ratio (95% confidence interval) (acute ischemic stroke; Alteplase stratum (n = 659)): 0.92 (0.82-1.04)
- mRS 0-1, adjusted risk ratio (95% confidence interval) (acute ischemic stroke; Alteplase stratum (n = 659)): 0.91 (0.78-1.08)
- mRS 0-2, adjusted risk ratio (95% confidence interval) (acute ischemic stroke; Alteplase stratum (n = 659), nerinetide vs placebo, 90 days): 0.97 (0.87-1.08)
- mRS 0-2, adjusted risk ratio (95% confidence interval) (acute ischemic stroke; Alteplase stratum (n = 659), nerinetide vs placebo, 90 days, listed as nerinetide): 0.97
- BI 95-100, patients number (proportion) (acute ischemic stroke; [2]): 213 (64.5%)
- Mortality, patients number (proportion) (acute ischemic stroke; [2]): 39 (11.8%)
- NIHSS 0-2, patients number (proportion) (acute ischemic stroke; [2]): 191 (57.9%)
- mRS 0-1, patients number (proportion) (acute ischemic stroke; [2]): 138 (41.8%)
- mRS 0-2, patients number (proportion) (acute ischemic stroke; [2]): 207 (62.7%)
- mRS 0-2, patients number (proportion) (acute ischemic stroke; Alteplase stratum, nerinetide n = 330, listed as nerinetide): 62.7%
- Infarct volume, absolute volume difference of medians (acute ischemic stroke; Alteplase stratum, nerinetide vs placebo): 1.6* ml
- BI 95-100, unadjusted RR (CI95) (acute ischemic stroke; No Alteplase stratum): 1.16 (0.98-1.38)
- Deaths without imputation, RR (acute ischemic stroke; No Alteplase stratum): 0.60
- Infarct volume (cubic root transformation), beta coefficient (acute ischemic stroke; No Alteplase stratum): −0.98 (−1.91 to −0.05)** ml^1/3
- Infarct volume (median) (acute ischemic stroke; No Alteplase stratum): 26.7 mL
- Mortality, unadjusted RR (CI95) (acute ischemic stroke; No Alteplase stratum): 0.63 (0.41-0.97)
- NIHSS 0-2, unadjusted RR (CI95) (acute ischemic stroke; No Alteplase stratum): 1.18 (1.00-1.40)
- mRS 0-1, unadjusted RR (CI95) (acute ischemic stroke; No Alteplase stratum): 1.13 (0.88-1.45)
- mRS 0-2, unadjusted RR (CI95) (acute ischemic stroke; No Alteplase stratum): 1.19 (1.01-1.41)
- BI 95-100, adjusted risk ratio (95% confidence interval) (acute ischemic stroke; No Alteplase stratum (n = 446)): 1.14 (0.97-1.34)
- Mortality, adjusted risk ratio (95% confidence interval) (acute ischemic stroke; No Alteplase stratum (n = 446)): 0.66 (0.44-0.99)
- NIHSS 0-2, adjusted risk ratio (95% confidence interval) (acute ischemic stroke; No Alteplase stratum (n = 446)): 1.14 (0.97-1.34)
- mRS 0-1, adjusted risk ratio (95% confidence interval) (acute ischemic stroke; No Alteplase stratum (n = 446)): 1.04 (0.82-1.31)
- mRS 0-2, adjusted risk ratio (95% confidence interval) (acute ischemic stroke; No Alteplase stratum (n = 446), nerinetide vs placebo, 90 days): 1.18 (1.01-1.38)
- mRS 0-2, adjusted risk ratio (95% confidence interval) (acute ischemic stroke; No Alteplase stratum (n = 446), nerinetide vs placebo, 90 days, listed as nerinetide): 1.18
- BI 95-100, number of patients (acute ischemic stroke; [3]): 128
- BI 95-100, proportion of patients (acute ischemic stroke; [3]): (58.4%)
- NIHSS 0-2, number of patients (acute ischemic stroke; [3]): 129
- NIHSS 0-2, proportion of patients (acute ischemic stroke; [3]): (58.9%)
- mRS 0-1, number of patients (acute ischemic stroke; [3]): 84
- mRS 0-1, proportion of patients (acute ischemic stroke; [3]): (38.4%)
- mRS 0-2, number of patients (acute ischemic stroke; [3]): 130
- mRS 0-2, proportion of patients (acute ischemic stroke; [3]): (59.3%)
- Mortality, number of patients (acute ischemic stroke; [4]): 28
- Mortality, proportion of patients (acute ischemic stroke; [4]): (12.8%)
- mRS 0-2, proportion of patients (acute ischemic stroke; No Alteplase stratum, nerinetide n = 219, listed as nerinetide): 59.3%
- Infarct volume, absolute volume difference of medians (acute ischemic stroke; No Alteplase stratum, nerinetide vs placebo): −12.5* ml
- mRS 0-2, adjusted risk ratio (95% confidence interval) (acute ischemic stroke; all patients (ITT), nerinetide 2.6 mg/kg iv vs placebo, 90 days): 1.04 (0.96-1.14)
- mRS 0-2, adjusted risk ratio (95% confidence interval) (acute ischemic stroke; all patients (ITT), nerinetide 2.6 mg/kg iv vs placebo, 90 days, listed as nerinetide): 1.04
- BI 95-100, adjusted risk ratio (95% confidence interval) (acute ischemic stroke; [5]): 1.03 (0.94-1.12)
- Mortality, adjusted risk ratio (95% confidence interval) (acute ischemic stroke; [5]): 0.84 (0.63-1.13)
- NIHSS 0-2, adjusted risk ratio (95% confidence interval) (acute ischemic stroke; [5]): 1.01 (0.92-1.11)
- mRS 0-1, adjusted risk ratio (95% confidence interval) (acute ischemic stroke; [5]): 0.98 (0.85-1.12)
- Infarct volume (median) (acute ischemic stroke; all patients, 24-hour imaging): 23.7 mL
- Infarct volume (median) (acute ischemic stroke; all patients, 24-hour imaging, listed as nerinetide): 26.0 (iqr 6.6-101.5) ml
- BI 95-100, patients number (proportion) (acute ischemic stroke; [6]): 341 (62.1%)
- NIHSS 0-2, patients number (proportion) (acute ischemic stroke; [6]): 320 (58.3%)
- mRS 0-1, patients number (proportion) (acute ischemic stroke; [6]): 222 (40.4%)
- mRS 0-2, patients number (proportion) (acute ischemic stroke; [6]): 337 (61.4%)
- Mortality, patients number (proportion) (acute ischemic stroke; all patients, nerinetide group n = 549, 90 days, missing outcomes imputed as deaths): 67 (12.2%)
- mRS 0-2, patients number (proportion) (acute ischemic stroke; all patients, nerinetide group n = 549, 90 days, listed as nerinetide): 61.4%
- Infarct volume (cubic root transformation), adjusted beta coefficient (acute ischemic stroke; all patients, nerinetide vs control, 24-hour imaging): −0.29 (−0.87 to 0.30)** ml^1/3
- BI 95-100, unadjusted RR (CI95) (acute ischemic stroke; [7]): 1.03 (0.94-1.13)
- Deaths without imputation, RR (acute ischemic stroke; [7]): 0.87
- Infarct volume, absolute volume difference of medians (acute ischemic stroke; [7]): −2.3* ml
- NIHSS 0-2, unadjusted RR (CI95) (acute ischemic stroke; [7]): 1.01 (0.92-1.12)
- mRS 0-1, unadjusted RR (CI95) (acute ischemic stroke; [7]): 0.99 (0.86-1.15)
- mRS 0-2, unadjusted RR (CI95) (acute ischemic stroke; [7]): 1.04 (0.94-1.14)
- Mortality, unadjusted RR (CI95) (acute ischemic stroke; all patients, nerinetide vs placebo, missing imputed as deaths): 0.85 (0.63-1.15)
- Infarct volume, mean (acute ischemic stroke; alteplase group): 73.3 mL
- Infarct volume, mean (acute ischemic stroke; no alteplase group): 67.8 mL
- Number-needed-to-treat (acute ischemic stroke; no-alteplase stratum): 10-11 patients
- absolute benefit (acute ischemic stroke; no-alteplase stratum): 9.4%
- absolute risk reduction in mortality at 90 days (acute ischemic stroke; stratum that did not receive alteplase): 7.5%
- hazard of death, adj HR (acute ischemic stroke; stratum that did not receive alteplase, Cox model): 0.56
